Data on eight compounds can be found in patent US20130210733A1, “METHODS OF TREATING LUNG DISEASE” (Cytokinetics, Inc., priority 2010, published 2013).

In assay [1] the test system is human pulmonary arterial smooth muscle cells from patients with idiopathic pulmonary arterial hypertension (IPAH HPASMC). Briefly: IPAH HPASMC proliferation assay. The format is cell-based. The settings on record: for inhibition at 1 µM: Homo sapiens; for inhibition at 1 µM / effect on proliferation (in words) / inhibition of proliferation normalized to FBS-induced growth / effect of combined treatment versus single agents (in words): IPAH HPASMC; for effect on proliferation (in words): concentrations up to 1 uM. As for the experimental part:
(§1) Primary cultures of human pulmonary arterial smooth muscle cells were derived from distal blood vessels taken from lungs harvested from patients with idiopathic pulmonary arterial hypertension (IPAH) who had been treated with iloprost or a combination of epoprostenol and bosentan for at least 1.4 years. Cells were cultured for 24 hours in 6-well plates in a solution of human smooth muscle basal medium (SMBM; TCS Cellworks, UK) with 9% fetal bovine serum (FBS; Invitrogen, US) and penicillin-streptomycin (PenStrep; 50 units/mL; Invitrogen, US). The incubating solution was then changed to PenStrep in SMBM and the cells were allowed to incubate for another 48 hours. Test compounds were administered to the test wells as DMSO solutions with FBS (FBS and DMSO or SMBM were administered to the control wells). After 96 hours of incubation, the cells were trypsinized (0.05% trypsin/EDTA; Invitrogen, US) and 20 uL of cell suspension was added to 20 uL of Accustain solution T and Accustain solution N (Labtech, UK). The cells were counted and their viability assessed using an ADAM Automated Cell Counter (Digital Bio, Korea). Results were expressed in cell number per mL and percent growth compared to FBS-induced growth alone.

The nature of assay [2]: Fibroblast proliferation assay. The settings on record: Homo sapiens, Fibroblast, read-out: inhibition of proliferation normalized to FBS-induced growth. The format is cell-based, human. As to the method:
as §1
(§2) Using the procedure described in Example 1, primary cultures of human lung fibroblasts were derived from lungs harvested from patients with ideopathic pulmonary fibrosis (IPF) with secondary pulmonary arterial hypertension (PAH) who had previously been treated with epoprostenol, bosentan, and/or steroids. Treprostinil sodium was tested in these cells under the conditions described in Example 1 at concentrations of 1 pM, 10 pM, 100 pM, 1 nM, 10 nM, 100 nM, and 1 uM. The experiment was repeated four times and the results were averaged.

The subject of assay [3] is human lung fibroblasts from patients with ideopathic pulmonary fibrosis (IPF) with secondary pulmonary arterial hypertension (PAH). The assay is described as follows: Fibroblast proliferation assay. The settings on record: for effect on proliferation (in words): lung fibroblasts from IPF patients with secondary PAH, 1 pM to 1 uM. The format is cell-based. As to the method:
as §1, §2

Assay [4] concerns human pulmonary arterial smooth muscle cells from healthy patients (normal HPASMC). The assay is described as follows: Normal HPASMC proliferation assay. Format: cell-based. The settings on record: for inhibition at 1 µM: Homo sapiens, read-out: inhibition of proliferation normalized to FBS-induced growth; for effect on proliferation (in words): normal HPASMC, 1 pM to 1 uM. As to the method:
as §1
As a control, primary cultures of human pulmonary arterial smooth muscle cells were derived from distal blood vessels taken from lungs harvested from healthy patients according to procedure described in Example 1. Treprostinil sodium was tested in these cells under the conditions described in Example 1 at concentrations of 1 pM, 10 pM, 100 pM, 1 nM, 10 nM, 100 nM, and 1 uM. The experiment was repeated four times and the results were averaged.

[5] abbreviates: 1 uM test compound, 96 hours incubation, cell count, read-out: inhibition of proliferation normalized to FBS-induced growth.
Setting [6] is: 1 uM test compound, 96 hours incubation, cell count.

Like-named read-outs stand apart in the source and are kept apart here.

On to `CCCC[C@@H](NC(=O)[C@@H](Cc1cn(C(=O)OC)c2ccccc12)NC(=O)[C@H](CC(C)(C)C)NC(=O)N1[C@H](C)CCC[C@@H]1C)C(=O)O` [BQ788, reference compound], for which, in assay [1] (setting [5]), the inhibition at 1 µM was roughly 20%. Besides, the “effect on proliferation (in words)” value in assay [1] was “inhibited proliferation of IPAH cells at higher concentrations”.

As for `Cc1ccc(C(=O)N(CCCN)[C@@H](c2oc3cc(Cl)ccc3c(=O)c2Cc2ccccc2)C(C)C)cc1` [Compound A, N-(3-Aminopropyl)-N-[(R)-(1-3-benzyl-7-chloro-4-oxo-4H-chromen-2-yl)-2-methyl-propyl]-4-methyl-benzamide], the “inhibition of proliferation normalized to FBS-induced growth” value in assay [1] (setting [6]) is given as “approximately 70%”. Also, the “effect on proliferation (in words)” value in assay [1] was “inhibited proliferation of IPAH cells in a dose dependent manner”.

Turning to `CC(C)Oc1ccc(C(=O)N[C@H](CNC(=O)CN(C)C)Cc2ccc(-c3cn4cccc([C@H](C)O)c4n3)cc2)cc1Cl` [Compound B, 3-Chloro-N-{(1S)-2-[(N,N-dimethylglycyl)amino]-1-[(4-{8-[(1S)-1-hydroxyethyl]imidazo[1,2-c]pyridin-2-yl}phenyl)methyl]ethyl}-4-[(1-methylethyl)oxy]benzamide], in assay [1] (setting [6]), the “inhibition of proliferation normalized to FBS-induced growth” value is reported as “approximately 95%”. The “effect on proliferation (in words)” value in assay [1] was “inhibited proliferation of IPAH cells in a dose dependent manner”.

On to `COC(c1ccccc1)(c1ccccc1)[C@H](Oc1nc(C)cc(C)n1)C(=O)O` [ambrisentan, reference compound], for which, in assay [1] (setting [5]), the inhibition at 1 µM was roughly 25%.

For the compound `COc1ccccc1Oc1c(NS(=O)(=O)c2ccc(C(C)(C)C)cc2)nc(-c2ncccn2)nc1OCCO` [bosentan, reference compound], the inhibition at 1 µM in assay [1] (setting [5]) is roughly 20%. For the same compound, the “effect on proliferation (in words)” value in assay [1] is on record as “inhibited proliferation of IPAH HPASMC cells at higher concentrations”.

With `CC#CCC(C)[C@H](O)/C=C/[C@@H]1[C@H]2C/C(=C/CCCC(=O)O)C[C@H]2C[C@H]1O` (stereo partly drawn) [iloprost, reference compound], in assay [1] (setting [5]), the inhibition at 1 µM is roughly 40%. Moreover, the “effect on proliferation (in words)” value in assay [1] is “inhibited proliferation of IPAH HPASMC cells in a dose dependent manner”.

Regarding `CS(=O)(=O)O.Cc1ccc(C(=O)N(CCCN)[C@@H](c2nc3cc(Cl)ccc3c(=O)n2Cc2ccccc2)C(C)C)cc1` [ispinesib mesylate, N-(3-aminopropyl)-N-[(1R)-1-(3-benzyl-7-chloro-4-oxo-3,4-dihydroquinazolin-2-yl)-2-methylpropyl]-4-methylbenzamide monomethanesulfonate], the inhibition at 1 µM was roughly 80% in assay [1] (96 h, read-out: inhibition of proliferation normalized to FBS-induced growth, 1 uM test compound, 96 hours incubation, cell count); roughly 90% in assay [1] (read-out: inhibition of proliferation normalized to FBS-induced growth, combination, 1 uM ispinesib mesylate and 10 nM treprostinil sodium); roughly 75% in assay [1] (read-out: inhibition of proliferation normalized to FBS-induced growth, combination, 1 uM ispinesib mesylate and 100 nM BQ788); roughly 80% in assay [1] (read-out: inhibition of proliferation normalized to FBS-induced growth, combination, 1 uM ispinesib mesylate and 100 nM ambrisentan); roughly 99% in assay [1] (read-out: inhibition of proliferation normalized to FBS-induced growth, combination, 1 uM ispinesib mesylate and 100 nM bosentan); roughly 95% in assay [1] (read-out: inhibition of proliferation normalized to FBS-induced growth, combination, 1 uM ispinesib mesylate, 100 nM ambrisentan and 100 nM BQ788). Moreover, the inhibition at 1 µM is roughly 75% in assay [2] and roughly 55% in assay [4]. The “effect on proliferation (in words)” value in assay [1] was “inhibited proliferation of IPAH cells in a dose dependent manner”; in assay [3] it was “inhibited proliferation of fibroblasts in a dose dependent manner”; in assay [4] it was “inhibited proliferation of fibroblasts in a dose dependent manner”. Besides, in assay [1] (comparison of Examples 9, 16 and 18), the “potency in IPAH HPASMCs and fibroblasts compared with normal HPASMCs (in words)” value is “significantly more potent at inhibiting proliferation of IPAH HPASMCs and fibroblasts than normal HPASMCs”. The “effect of combined treatment versus single agents (in words)” value in assay [1] (ispinesib mesylate (1 pM to 1 uM) with 10 nM treprostinil sodium) and in assay [1] (ispinesib mesylate (1 pM to 1 uM) with 100 nM bosentan) was “enhanced the antiproliferative effects of either agent alone” each time. Moreover, the “potency compared with treprostinil sodium (in words)” value in assay [3] (lung fibroblasts derived from IPF patients with secondary PAH) is recorded as “significantly more potent than treprostinil sodium”; in assay [4] (normal HPASMCs) it was “slightly more potent than treprostinil sodium”.

Regarding `CCCCC[C@H](O)CC[C@@H]1[C@H]2Cc3cccc(OCC(=O)O)c3C[C@H]2C[C@H]1O` [treprostinil sodium, reference compound], the inhibition at 1 µM in assay [1] (setting [5]) was roughly 60%; in assay [2] (1 uM test compound, lung fibroblasts from IPF patients with secondary PAH), roughly 45%; in assay [4] (1 uM test compound, normal HPASMC from healthy patients) it was roughly 35%. The “effect on proliferation (in words)” value in assay [1] was “inhibited proliferation of IPAH HPASMC cells in a dose dependent manner”; in assay [3] it was “inhibited proliferation of fibroblasts at higher concentrations”; in assay [4], “inhibited normal HPASMC proliferation at higher concentrations”.
